Experimental data reported in patent US10195156B2, “Compounds and compositions for intracellular delivery of agents” (ModernaTX, Inc., priority 2015, dated 2019).

Assays:
[1] = system: LDL-c; assay: LDL levels in LDLr−/− mice after mRNA encoding the LDL receptor; type: in vivo, LDLR knockout mice; settings: Mus musculus; Table 7b; LDLr−/− mice, 0.5 mpk, LDLr; read-out: LDL levels lipid/untreated LDLr−/− mice 0.5 mpk, LDLr
[2] = system: GFP expression in liver cells; assay: Mouse liver immunohistochemistry (IHC) with GFP mRNA; type: in vivo; settings: FIG. 11, i.v., 0.5 mpk, 6 h (MC3, CD-1) or 8 h (Compound 4, LDLR knockout)
Experimental: FIG. 11 is a pair of images comparing the results of a mouse liver immunohistochemistry (IHC) using mRNA expressing green fluorescent protein (GFP) after administration of nanoparticle compositions containing Compound 4 and MC3.
FIG. 16 is a graph showing GFP levels in the livers of LDLR knockout mice at 30 min to 24 h after intravenous administration of an eGFP RNA in a lipid composition containing Compound 4. The liver GFP levels were determined via IHC. The square markers represent the number of GFP positive cells following administration of a dose of 0.1 mpk of the composition. The circular markers represent the number of GFP positive cells following administration of a dose of 0.5 mpk of the composition.

[3] = system: modified luciferase (Luc) expression; assay: Expression upon intramuscular administration of Luc mRNA and H10 mRNA formulations; type: in vivo; settings: 6 hours after intramuscular administration
Experimental: Sample formulations including both modified luciferase (Luc) mRNA and H10 mRNA were prepared and administered intramuscularly at day 1 and day 21 and the resulting expression and immunogenicity were evaluated simultaneously. Formulations including compounds according to formula (20-I) were prepared and administered at doses of 0.001 and 0.01 mpk (e.g., doses of 0.0005 mpk of a formulation including Luc mRNA and a formulation including H10 mRNA or doses of 0.005 mpk of a formulation including Luc mRNA and a formulation including H10 mRNA). As shown in Table 20-4, the total flux was higher upon administration of the second dose for each composition and at each dose level. Total flux was higher for the higher dose level.

[4] = pKa of nanoparticle compositions; type: physicochemical

Row | Compound | response vs control in vivo at 0.5 mg/kg [1] [%] | GFP protein expression in liver cell types (in words) [2] | Total flux (p/s) 0.001 mpk Dose 1 ([3]; 0.001 mpk, Dose 1) [p/s] | Total flux (p/s) 0.001 mpk Dose 2 ([3]; 0.001 mpk, Dose 2) [p/s] | Total flux (p/s) 0.01 mpk Dose 1 ([3]; 0.01 mpk, Dose 1) [p/s] | Total flux (p/s) 0.01 mpk Dose 2 ([3]; 0.01 mpk, Dose 2) [p/s] | pKa ([4]; Table 1, rows without footnote mark) | pKa ([4]; Table 5, hEPO mRNA, 40:20:38.5:1.5 Lipid:DOPE:Chol:PEG-DMG)
1 | CCCCCC=CCC=CCCCCCCCCC(CCCCCCCCC=CCC=CCCCCC)OC(=O)CCCN(C)C (centres unmarked) [MC3, heptatriaconta-6,9,28,31-tetraen-19-yl 4-(dimethylamino)butanoate, reference compound] | 55 | observed in both hepatocytes and Kupffer cells | 1.23E+06 | 1.09E+06 | 1.79E+07 | 3.13E+07 | – | –
2 | CCCCCCCCCCCCN(CCCCCCCCCCCC)CCN(CCCCCCCCCCCC)CCN1CCN(CCN(CCCCCCCCCCCC)CCCCCC(=O)OCCCCC)CC1 [Compound 12, Pentyl 6-((2-(4-(2-((2-(didodecylamino)ethyl)(dodecyl)amino)ethyl)piperazin-1-yl)ethyl)(dodecyl)amino)hexanoate] | – | – | – | – | – | – | 5.44 | 5.444
